Data on three compounds can be found in ChEMBL document CHEMBL5724806, “Unraveling interindividual differences and functional consequences of gut microbial metabolism of immunosuppressants” (2024).

Type in all cases: ADME
Series [1] in a line: The drug is tested on Actinomyces naeslundi strain: DSM43013 for biotransformation under anaerobic condition. The drug concentrations were measured over 6 timepoints collected between 0 and 12 hours of incubation by liquid-chromatography-coupled mass spectrometry (LC–MS). On the set-up: dose 5 uM, timepoint 0, 1.5, 3, 6, 9, 12 hours. As to conditions: actinomyces naeslundii, 5 µM.

The nature of series [2]: The drug is tested on Alloscardovia omnicolens strain: DSM21503 for biotransformation under anaerobic condition. The drug concentrations were measured over 6 timepoints collected between 0 and 12 hours of incubation by liquid-chromatography-coupled mass spectrometry (LC–MS). The note with it: 5 µM. Also noted: dose 5 uM, timepoint 0, 1.5, 3, 6, 9, 12 hours.
Series [3] in a line: The drug is tested on Bacteroides ovatus strain: ATCC 8483 for biotransformation under anaerobic condition. The drug concentrations were measured over 6 timepoints collected between 0 and 12 hours of incubation by liquid-chromatography-coupled mass spectrometry (LC–MS). On the set-up: dose 5 uM, timepoint 0, 1.5, 3, 6, 9, 12 hours. As to conditions: 5 µM.
Series [4] can be described thus: The drug is tested on Bacteroides uniformis strain: DSM6597 for biotransformation under anaerobic condition. The drug concentrations were measured over 6 timepoints collected between 0 and 12 hours of incubation by liquid-chromatography-coupled mass spectrometry (LC–MS). As to conditions: 5 µM. On the set-up: dose 5 uM, timepoint 0, 1.5, 3, 6, 9, 12 hours.
The nature of series [5]: The drug is tested on Bacteroides vulgatus strain: DSM1447 for biotransformation under anaerobic condition. The drug concentrations were measured over 6 timepoints collected between 0 and 12 hours of incubation by liquid-chromatography-coupled mass spectrometry (LC–MS). As to conditions: phocaeicola vulgatus, 5 µM. On the set-up: dose 5 uM, timepoint 0, 1.5, 3, 6, 9, 12 hours.

Series [6] can be described thus: The drug is tested on Bacteroides xylanisolvens strain: HM 722 for biotransformation under anaerobic condition. The drug concentrations were measured over 6 timepoints collected between 0 and 12 hours of incubation by liquid-chromatography-coupled mass spectrometry (LC–MS). Also noted: dose 5 uM, timepoint 0, 1.5, 3, 6, 9, 12 hours. The note with it: 5 µM.
The nature of series [7]: The drug is tested on Eubacterium hallii strain: DSM3353 for biotransformation under anaerobic condition. The drug concentrations were measured over 6 timepoints collected between 0 and 12 hours of incubation by liquid-chromatography-coupled mass spectrometry (LC–MS). On the set-up: dose 5 uM, timepoint 0, 1.5, 3, 6, 9, 12 hours. As to conditions: anaerobutyricum hallii, 5 µM.

A short description of series [8]: The drug is tested on Faecalibacterium prausnitzii strain: DSM17677 for biotransformation under anaerobic condition. The drug concentrations were measured over 6 timepoints collected between 0 and 12 hours of incubation by liquid-chromatography-coupled mass spectrometry (LC–MS). On the set-up: dose 5 uM, timepoint 0, 1.5, 3, 6, 9, 12 hours. As to conditions: faecalibacterium duncaniae, 5 µM.

A short description of series [9]: The drug is tested on Lactobacillus ruminis strain: ATCC25644 for biotransformation under anaerobic condition. The drug concentrations were measured over 6 timepoints collected between 0 and 12 hours of incubation by liquid-chromatography-coupled mass spectrometry (LC–MS). Also noted: dose 5 uM, timepoint 0, 1.5, 3, 6, 9, 12 hours. As to conditions: ligilactobacillus ruminis, 5 µM.

Series [10] in a line: The drug is tested on Roseburia intestinalis strain: DSM14610 for biotransformation under anaerobic condition. The drug concentrations were measured over 6 timepoints collected between 0 and 12 hours of incubation by liquid-chromatography-coupled mass spectrometry (LC–MS). As to conditions: 5 µM. On the set-up: dose 5 uM, timepoint 0, 1.5, 3, 6, 9, 12 hours.
A short description of series [11]: The drug is tested on Streptococcus mitis strain: DSM12643 for biotransformation under anaerobic condition. The drug concentrations were measured over 6 timepoints collected between 0 and 12 hours of incubation by liquid-chromatography-coupled mass spectrometry (LC–MS). On the set-up: dose 5 uM, timepoint 0, 1.5, 3, 6, 9, 12 hours. As to conditions: 5 µM.
Series [12] in a line: The drug is tested on Akkermansia muciniphila strain: DSM22959 for biotransformation under anaerobic condition. The drug concentrations were measured over 6 timepoints collected between 0 and 12 hours of incubation by liquid-chromatography-coupled mass spectrometry (LC–MS). On the set-up: dose 5 uM, timepoint 0, 1.5, 3, 6, 9, 12 hours. As to conditions: 5 µM.
Series [13] is described as follows: The drug is tested on Lactobacillus ruminis strain: ATCC25644 for biotransformation under microaerobic condition. The drug concentrations were measured over 6 timepoints collected between 0 and 12 hours of incubation by liquid-chromatography-coupled mass spectrometry (LC–MS). Also noted: dose 5 uM, timepoint 0, 1.5, 3, 6, 9, 12 hours. The note with it: ligilactobacillus ruminis, 5 µM.

Series [14] can be described thus: The drug is tested on the gut metagenome community of A-01 with ENA study accession number: PRJEB31790 for biotransformation under anaerobic condition. The drug concentrations were measured over 7 timepoints collected between 0 and 12 hours of incubation by liquid-chromatography-coupled mass spectrometry (LC–MS). Also noted: dose 5 uM, timepoint 0, 0.75, 1.5, 3, 6, 9, 12 hours. The note with it: 5 µM.

Series [15] can be described thus: The drug is tested on the gut metagenome community of A-03 with ENA study accession number: PRJEB31790 for biotransformation under anaerobic condition. The drug concentrations were measured over 7 timepoints collected between 0 and 12 hours of incubation by liquid-chromatography-coupled mass spectrometry (LC–MS). On the set-up: dose 5 uM, timepoint 0, 0.75, 1.5, 3, 6, 9, 12 hours. The note with it: 5 µM.

The nature of series [16]: The drug is tested on the gut metagenome community of A-09 with ENA study accession number: PRJEB31790 for biotransformation under anaerobic condition. The drug concentrations were measured over 7 timepoints collected between 0 and 12 hours of incubation by liquid-chromatography-coupled mass spectrometry (LC–MS). On the set-up: dose 5 uM, timepoint 0, 0.75, 1.5, 3, 6, 9, 12 hours. The note with it: 5 µM.

The nature of series [17]: The drug is tested on the gut metagenome community of A-10 with ENA study accession number: PRJEB31790 for biotransformation under anaerobic condition. The drug concentrations were measured over 7 timepoints collected between 0 and 12 hours of incubation by liquid-chromatography-coupled mass spectrometry (LC–MS). Also noted: dose 5 uM, timepoint 0, 0.75, 1.5, 3, 6, 9, 12 hours. As to conditions: 5 µM.

Series [18] is described as follows: The drug is tested on the gut metagenome community of T-01 with ENA study accession number: PRJEB31790 for biotransformation under anaerobic condition. The drug concentrations were measured over 7 timepoints collected between 0 and 12 hours of incubation by liquid-chromatography-coupled mass spectrometry (LC–MS). Also noted: dose 5 uM, timepoint 0, 0.75, 1.5, 3, 6, 9, 12 hours. As to conditions: 5 µM.

The nature of series [19]: The drug is tested on the gut metagenome community of A-03 with ENA study accession number: PRJEB31790 for biotransformation under microaerobic condition. The drug concentrations were measured over 7 timepoints collected between 0 and 12 hours of incubation by liquid-chromatography-coupled mass spectrometry (LC–MS). Also noted: dose 5 uM, timepoint 0, 0.75, 1.5, 3, 6, 9, 12 hours. The note with it: 5 µM.

The nature of series [20]: The drug is tested on the gut metagenome community of A-04 with ENA study accession number: PRJEB31790 for biotransformation under microaerobic condition. The drug concentrations were measured over 7 timepoints collected between 0 and 12 hours of incubation by liquid-chromatography-coupled mass spectrometry (LC–MS). Also noted: dose 5 uM, timepoint 0, 0.75, 1.5, 3, 6, 9, 12 hours. As to conditions: 5 µM.

A short description of series [21]: The drug is tested on the gut metagenome community of A-08 with ENA study accession number: PRJEB31790 for biotransformation under microaerobic condition. The drug concentrations were measured over 7 timepoints collected between 0 and 12 hours of incubation by liquid-chromatography-coupled mass spectrometry (LC–MS). Also noted: dose 5 uM, timepoint 0, 0.75, 1.5, 3, 6, 9, 12 hours. As to conditions: 5 µM.

Series [22] is described as follows: The drug is tested on the gut metagenome community of P-01 with ENA study accession number: PRJEB31790 for biotransformation under microaerobic condition. The drug concentrations were measured over 7 timepoints collected between 0 and 12 hours of incubation by liquid-chromatography-coupled mass spectrometry (LC–MS). Also noted: dose 5 uM, timepoint 0, 0.75, 1.5, 3, 6, 9, 12 hours. As to conditions: 5 µM.

Series [23] can be described thus: The drug is tested on the gut metagenome community of T-04 with ENA study accession number: PRJEB31790 for biotransformation under microaerobic condition. The drug concentrations were measured over 7 timepoints collected between 0 and 12 hours of incubation by liquid-chromatography-coupled mass spectrometry (LC–MS). Also noted: dose 5 uM, timepoint 0, 0.75, 1.5, 3, 6, 9, 12 hours. As to conditions: 5 µM.

Series [24] is described as follows: The drug is tested on the gut metagenome community of T-05 with ENA study accession number: PRJEB31790 for biotransformation under microaerobic condition. The drug concentrations were measured over 7 timepoints collected between 0 and 12 hours of incubation by liquid-chromatography-coupled mass spectrometry (LC–MS). On the set-up: dose 5 uM, timepoint 0, 0.75, 1.5, 3, 6, 9, 12 hours. As to conditions: 5 µM.

Take `C[C@H]1C[C@@H]2[C@H]([C@@H](O)C[C@@]3(C)[C@H]2CC[C@]3(O)C(=O)CO)[C@@]2(C)C=CC(=O)C=C12` [METHYLPREDNISOLONE]: the “Bacterial Biotransformation” value in series [1], in series [2], in [3], in series [4], in series [5] and in series [6] was “Compound NOT metabolized” each time. The “Bacterial Biotransformation” value in series [7], in series [8], in series [9], in series [10], in [11] and in series [12] was “Compound NOT metabolized” each time. The “Bacterial Biotransformation” value in series [13] is given as “Compound NOT metabolized”; in series [14], “Compound metabolized”; in series [15], “Compound metabolized”; in series [16] it was “Compound metabolized”; in [17], “Compound metabolized”; in series [18] it was “Compound NOT metabolized”. In addition, the “Bacterial Biotransformation” value in series [19] was “Compound metabolized”; in series [20] it was “Compound metabolized”; in [21], “Compound metabolized”; in [22], “Compound metabolized”; in series [23] it was “Compound NOT metabolized”; in series [24] it was “Compound metabolized”.

On to `COc1c(C)c2c(c(O)c1C/C=C(\C)CCC(=O)OCCN1CCOCC1)C(=O)OC2` [MYCOPHENOLATE MOFETIL], for which the “Bacterial Biotransformation” value in series [1] is on record as “Compound metabolized”; in series [2] it was “Compound metabolized”; in series [3], “Compound metabolized”; in series [4] it was “Compound metabolized”; in series [5], “Compound NOT metabolized”; in series [6], “Compound metabolized”. The “Bacterial Biotransformation” value is recorded as “Compound NOT metabolized” in series [7]; “Compound metabolized” in [8]; “Compound metabolized” in [9]; “Compound NOT metabolized” in series [10]; “Compound metabolized” in [11]; “Compound NOT metabolized” in series [12]. The “Bacterial Biotransformation” value in series [13], in series [14], in series [15], in series [16], in series [17] and in series [18] was “Compound metabolized” each time. Besides, the “Bacterial Biotransformation” value in series [19], in series [20], in series [21], in [22], in series [23] and in series [24] was “Compound metabolized” in each case.

Regarding `COc1c(C)c2c(c(O)c1C/C=C(\C)CCC(=O)O)C(=O)OC2` [MYCOPHENOLIC ACID], the “Bacterial Biotransformation” value in series [1], in [2], in [3], in [4], in series [5] and in series [6] was “Compound NOT metabolized” throughout. For the same compound, the “Bacterial Biotransformation” value in series [7], in [8], in series [9], in series [10], in [11] and in series [12] was “Compound NOT metabolized” throughout. The “Bacterial Biotransformation” value in series [13], in series [14], in [15], in series [16], in [17] and in series [18] was “Compound NOT metabolized” throughout. For the same compound, the “Bacterial Biotransformation” value in series [19] is on record as “Compound NOT metabolized”; in [20], “Compound NOT metabolized”; in series [21] it was “Compound NOT metabolized”; in [22] it was “Compound NOT metabolized”; in [23], “Compound NOT metabolized”; in series [24], “Compound metabolized”.
